Assay in all cases: NCI tumour cell line growth inhibition, 48 h
The subject of test [1] is HT29 colon.
For test [2], the system named is SK-MEL-2 melanoma.
Test [3] concerns SF-539 CNS.
Test [4] concerns A498 renal.
Test [5] relates to CAKI-1 renal.
Test [6] concerns SK-MEL-5 melanoma.
Test [7] relates to SW-620 colon.
Test [8] deals with NCI-H226 lung.
The subject of test [9] is HCT-15 colon.
In test [10] the test system is SF-268 CNS.

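Where inhibition never reached the appropriate level, the endpoint shown equals the highest concentration tested. Otherwise, values were interpolated linearly from a five-concentration, 48-hour dose response in 96-well plates. GI50 marks 50% less growth. TGI: total growth inhibition.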

In the case of `COc1cc2c(cc1OC)C(Cl)C(c1ccc(Cl)cc1)=C2Cl` (stereo unspecified), the TGI amounted to 28.6 µM in [1]; 36.3 µM in test [2]; 31.2 µM in [3]; 46 µM in [4]; 40.3 µM in test [5]; 28.3 µM in [6]. Further, the TGI in test [7] is 52 µM; in test [8], 50.6 µM; in test [9], 41.4 µM.

Turning to `O=C(c1cc(Br)ccc1O)c1cc(Br)ccc1O`, the TGI in test [1] amounted to 31.7 µM; in test [10], 42.4 µM; in test [2], 30.1 µM; in test [3], 38.2 µM; in [4], 31.4 µM; in [5] it was 32.2 µM. Also, the TGI in test [6] was 25.4 µM; in test [7], 30.6 µM; in [8], 42 µM; in test [9] it was 38.5 µM.

Regarding `COc1ccc(CNc2nc(NCc3ccc(OC)cc3)nc(NC(C)C)n2)cc1`, the TGI was more than 100 µM in test [1]; 50 µM in [10]; 44.2 µM in [2]; 27.3 µM in [3]; 47.1 µM in test [4]; 66.4 µM in test [5]. Further, the TGI in test [6] is 16.5 µM; in [7], more than 100 µM; in test [9] it was more than 100 µM.

In the case of `c1ccc2c[n+](CCCCCCCCCC[n+]3ccc4ccccc4c3)ccc2c1`, the TGI in test [1], in test [10], in test [2], in [3], in [4] and in test [5] was more than 10 µM throughout. The TGI in test [6], in test [7], in test [8] and in test [9] was more than 10 µM throughout.

With `O=C(CSCC(=O)N/N=C/c1cccc(OCc2ccccc2)c1)N/N=C/c1cccc(OCc2ccccc2)c1`, the TGI in [1] was more than 100 µM; in [10], more than 100 µM; in test [2], more than 100 µM; in test [3] it was more than 100 µM; in test [4], more than 69.7 µM; in test [5], more than 100 µM. For the same molecule, the TGI in test [6] is more than 92.8 µM; in [7] it was more than 100 µM; in test [8], more than 100 µM; in test [9], more than 100 µM.

In the case of `Cc1c2ccnc(-c3ccccc3)c2cc2c1[nH]c1ccccc12`, the TGI in test [1] turned out to be 8.14 µM; in test [10] it was 32.9 µM; in test [2], 7.3 µM; in [3] it was 7 µM; in test [4], 10.6 µM; in test [5], 6.96 µM. The TGI in test [6] is 2.78 µM; in test [7], 46.9 µM; in test [8] it was 5.23 µM; in [9] it was 9.62 µM.

`C[C@@H]1CC[C@H]2C(COC/C=C/COCC3=C(C(F)(F)F)O[C@@H]4O[C@@]5(C)CC[C@H]6[C@H](C)CC[C@@H]3[C@@]46OO5)=C(C(F)(F)F)O[C@@H]3O[C@@]4(C)CC[C@@H]1[C@]32OO4`: the GI50 in test [1] was 16.9 nM; in test [10], 84.6 nM; in [2] it was 387 nM; in [3] it was less than 24.2 nM; in test [4], 1540 nM; in test [5] it was 158 nM. Moreover, the GI50 was 86.6 nM in test [6], 10.1 nM in test [7], 19.9 nM in test [8] and 38 nM in [9]. Moreover, the TGI in test [1] is more than 100 µM; in test [10] it was more than 100 µM; in test [2], more than 100 µM; in test [3] it was more than 21.4 µM; in [4], more than 100 µM; in test [6], more than 100 µM. Further, the TGI was more than 100 µM in test [7], 0.191 µM in [8] and 14.2 µM in test [9].

As for `C[n+]1cccc(/C=C/c2ccc3cccc(O)c3n2)c1`, the TGI in test [1], in [10], in test [2], in [3], in test [4] and in test [5] was more than 100 µM in each case. For the same molecule, the TGI in [6], in [7], in [8] and in test [9] was more than 100 µM throughout.

As to `CCOC(=O)N1c2ccccc2S(=O)(=O)c2ccccc21`, the TGI in test [1], in [10], in test [2], in test [3], in test [4] and in test [5] was more than 100 µM in each case. The TGI in [6], in test [7], in [8] and in [9] was more than 100 µM throughout.

`Cc1ccc(C)c(/C(=N\N=C(N)N)C2CC2)c1`: the TGI was more than 100 µM in test [1]; more than 100 µM in test [10]; more than 100 µM in [2]; 75 µM in test [3]; more than 100 µM in [4]; more than 100 µM in [5]. The TGI in [6], in test [7], in test [8] and in [9] was more than 100 µM each time.

Consider `CCOC(=O)c1c2c(c(O)c3ccccc3c(O)n(-c3ccc(C)cc3)c1C)C(=O)C=CC2=O`, for which the TGI in [1] was 41.1 µM; in test [10] it was more than 100 µM; in test [2] it was 64.7 µM; in [3] it was 53.9 µM; in test [5] it was 43.3 µM; in test [6], 31.9 µM. For the same molecule, the TGI was 51.5 µM in test [7], more than 100 µM in [8] and 34.7 µM in [9].

With `Cc1ncc(CO)c(CN)c1O`, the TGI in test [1], in [10], in test [2], in test [3], in test [4] and in [5] was more than 100 µM in each case. Moreover, the TGI in [6], in test [7], in test [8] and in test [9] was more than 100 µM in each case.

On to `CN(C)CCNC(=O)c1cccc2nc3c4ccccc4c4ccccc4c3nc12`, for which the TGI was found to be 3.01 µM in test [1]; 0.632 µM in [10]; 8.24 µM in test [2]; 3.18 µM in test [3]; 15.6 µM in test [4]; 47.7 µM in [5]. Also, the TGI in [6] came out at 15.7 µM; in [7], 6.59 µM; in [8], 28.1 µM; in [9], 3.13 µM.

These data come from PubChem BioAssay (NCI).
